The record followed here is patent US20230027295A1, “FXIA INHIBITORS AND PREPARATION METHOD THEREFOR AND PHARMACEUTICAL USE THEREOF” (Shenzhen Salubris Pharmaceuticals Co., Ltd., priority 2019, published 2023).

As usually defined, the IC50 is the point on the concentration scale where inhibition reaches its midpoint. As usually defined, the AUC is concentration integrated over time. By Cmax is commonly meant the maximum level reached in the sampled fluid or tissue. As a reminder, the Tmax is the time from dosing to the highest level. Usually clearance stands for a measure of how efficiently the substance is removed, as volume per time. In general, half-life refers to the time needed for the level to fall by half in the phase considered. In general, efflux ratio refers to the permeability from basolateral to apical divided by that in the opposite direction, in the common usage. One may read the Papp A→B as how fast a substance crosses the layer from the apical side. One may read the Papp B→A as the apparent permeability from the basolateral to the apical side of a cell layer.

Data set [1] addresses T1, Human Factor Xa (Homo sapiens, UniProt P00742).
T1 construct: hFXa: Human Factor Xa: 71nkat; purchased 71nkat
Description: Selectivity to coagulation factors: hFXa (substrate S-2222). The class given is biochemical. As for the experimental part: Example 52: Investigation of the Selectivity of the Compounds of the Present Invention to Coagulation Factors
Enzyme: hFXa: Human Factor Xa: 71nkat. hFIIa: HT5146L. hFVIIa: Human Factor VIIa: hFVIIa 4591L. kallikrein: LOT180223.
hFXa buffer: 100 mM NaCl, 5 mM CaCl2, 33% ethylene glycol, 50 mM Tris (pH 7.5).
10 mM test compound dissolved in 100% DMSO was diluted with 100% DMSO to 1000, 200, 40, 8, 1.6 μM. 98 μL of enzyme solution was added to each well of a 96-well plate, while 98 μL of buffer was added to the blank wells. 2 μL of compounds of different concentrations were added, while the blank and control wells were added with DMSO instead. They were mixed with a shaker, and incubated at 37° C. for 20 min.
The concentrations of hFXa and S-2222™ were FXa (1:28) and 800 μmol/L, respectively. The concentrations of hFIIa and S-2238™ were hFIIa (0.06 U/ml) and 500 μmol/L, respectively. The concentrations of hFVIIa and S-2288™ were hFVIIa (80 nM) and 1600 μmol/L, respectively. The concentrations of kallikrein and substrate were kallikrein (20 nM) and 1600 μmol/L, respectively.
Finally, 100 μL substrate was added to each well, and its absorbance was measured at 405 nm.

The nature of data set [2]: Rat pharmacokinetics. The class given is in vivo, SD rats. Set-up: AUC: concentration or dose not given beside the values. The settings on record: for AUC / Cmax / Tmax / clearance / half-life / Vd: male, SD, plasma; for Vd: read-out: Vss. The source says:
Example 53: Investigation of the Pharmacokinetic Characteristics of the Compounds of the Present Invention
SD rats: male, 180-250 g, purchased from Guangdong Medical Laboratory Animal Center. Cynomolgus monkey: male, 4-6 kg, purchased from Guangzhou Chunsheng Biological Research Institute Co., Ltd. Beagle dog: male, 8-12 kg, developed in Kanglong Chemical (Ningbo) New Drug Technology Co., Ltd.
Reagents: DMSO (dimethyl sulfoxide), PEG-400 (polyethylene glycol 400), normal brine, heparin, acetonitrile, formic acid, and propranolol (internal standard) are commercially available.
Instrumentation: Thermo Fisher Scientific LC-MS (U300 UPLC, TSQ […] ULTRA triple quadrupole mass spectrometer).
The compound was weighed and dissolved in DMSO-PEG-400-physiological brine (5:60:35, v/v/v) system. After the rats/monkeys were administered intravenously or by gavage, 200 μL of venous blood was collected at 5 min (not collected when administered by gavage), 15 min, 30 min, 1 h, 2 h, 4 h, 6 h, 8 h, and 24 h in heparinized EP tubes, centrifuged at 12000 rpm for 2 min, and the plasma was frozen at −80° C. for testing. A certain amount of the test substance was precisely weighed and dissolved in DMSO to 1 mg/mL, which was used as a stock solution. An appropriate amount of compound stock solution was accurately pipetted and diluted with acetonitrile to prepare a standard series of solutions. 20 μL of each of the above standard series solutions were accurately pipetted, added with 180 μL of blank plasma, vortexed and mixed to prepare plasma samples equivalent to plasma concentrations of 1, 3, 10, 30, 100, 300, 1000, 3000 and 5000 ng/mL. Two-sample analysis was performed for each concentration to establish a standard curve. 20 μL of plasma was taken out, added with 200 μL of internal standard propranolol (5 ng/mL) in acetonitrile, vortexed and mixed. It was centrifuged at 4000 rpm for 5 min, and the supernatant was collected for LC-MS analysis. LC-MS detection conditions were as follows:
Chromatographic column: Thermo Scientific […] GOLD C-18 UPLC column, 100*2.1 mm, 1.9 μm.
Mobile phase: water (0.1% formic acid)-acetonitrile for gradient elution according to the table below.
After blood drug concentrations being detected by LC-MS, WinNonlin 6.1 software was used to calculate pharmacokinetic parameters by non-compartmental model method.

Data set [3] can be described thus: Caco-2 permeability. The class given is in vitro ADME. The settings on record: human; for efflux ratio at 2 h: Caco-2, Papp(B-A)/Papp(A-B); for Papp A→B at 2 h / Papp B→A at 2 h: Caco-2 monolayer, 2h incubation. As for the experimental part: Example 54: Investigation of the Caco-2 Data of the Compounds of the Present Invention
Medium: DMEM (Corning), FBS (Corning), double antibody (Solarbio), 96-well HTS transwell plate (Corning), Caco-2 cells.
Experimental method: Caco-2 cells were cultured on 96-well HTS transwell plate for 14-18 days, and the TEER value of each well was detected to ensure that the cells in each well formed a complete monolayer. Drug was added and it was incubated for 2h to detect the drug concentrations of A-B and B-A.
Data processing: PappA-B and PappB-A values were calculated: Papp=(VA×[drug]acceptor)/(Area×Time×[drug]initial, donor); Efflux Ratio was calculated: Efflux Ratio=Papp(B-A)/Papp(A-B).
(Caco-2 monolayers are a common model of the intestinal barrier.)

Data set [4] has as its target T2, CYP2D6 (Homo sapiens, UniProt P10635).
T2 construct: Liver microsomes (150-donor, Corning, Cat. 452117; Lot; 38292), NADPH; tissue Corning 452117; host or cells: liver microsomes, 150-donor pool
Description: CYP enzyme inhibition in liver microsomes: CYP2D6. The settings on record: 0.2 mg/mL liver microsomes. The class given is in vitro ADME. On the procedure: Example 55: Investigation of CYP Enzyme Inhibition by the Compounds of the Present Invention Liver microsomes (150-donor, Corning, Cat. 452117; Lot. 38292), NADPH. A 0.2 mg/mL microsome system was prepared, each test substance and substrate were added, and the final concentration of the test substance was 50 μM. After pre-incubating for 8 min, 10 mM NADPH was added to start the reaction, and the final concentration of NADPH was 1 mM. After a period of incubation, an internal standard such as methanol was added to stop the reaction. The amount of substrate metabolites generated in each reaction well was detected. Data processing: Taking the metabolite generation in the blank well as 100%, the reduction of metabolite generation in each well of the test substance was calculated, and the inhibition rate was calculated.
Background: Microsomes from liver hold many membrane-bound enzymes, among them those of drug oxidation.

Data set [5] addresses T3, CYP2C9 (Homo sapiens, UniProt P11712).
T3 construct: Liver microsomes (150-donor, Corning, Cat. 452117; Lot; 38292), NADPH; tissue Corning 452117; host or cells: liver microsomes, 150-donor pool
Nature of the data set: CYP enzyme inhibition in liver microsomes: CYP2C9. The settings on record: 0.2 mg/mL liver microsomes. The class given is in vitro ADME. On the procedure: Example 55: Investigation of CYP Enzyme Inhibition by the Compounds of the Present Invention Liver microsomes (150-donor, Corning, Cat. 452117; Lot. 38292), NADPH. […] After pre-incubating for 8 min, 10 mM NADPH was added to start the reaction, and the final concentration of NADPH was 1 mM. After a period of incubation, an internal standard such as methanol was added to stop the reaction. The amount of substrate metabolites generated in each reaction well was detected. […]

T1 sequence (P00742 235-488 limits assumed): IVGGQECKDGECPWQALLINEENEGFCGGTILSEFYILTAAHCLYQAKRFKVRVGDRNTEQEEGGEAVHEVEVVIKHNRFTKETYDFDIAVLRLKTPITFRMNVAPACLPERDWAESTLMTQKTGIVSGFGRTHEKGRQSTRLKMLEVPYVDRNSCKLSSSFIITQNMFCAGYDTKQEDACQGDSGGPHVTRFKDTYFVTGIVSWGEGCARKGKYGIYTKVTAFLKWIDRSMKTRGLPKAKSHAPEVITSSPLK
T1 sequence (P00742 41-179 partner limits assumed): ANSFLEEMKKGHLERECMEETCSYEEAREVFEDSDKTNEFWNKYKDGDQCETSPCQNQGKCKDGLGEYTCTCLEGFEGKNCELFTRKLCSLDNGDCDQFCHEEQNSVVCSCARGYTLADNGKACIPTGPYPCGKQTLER
T3 sequence (P11712 whole entry): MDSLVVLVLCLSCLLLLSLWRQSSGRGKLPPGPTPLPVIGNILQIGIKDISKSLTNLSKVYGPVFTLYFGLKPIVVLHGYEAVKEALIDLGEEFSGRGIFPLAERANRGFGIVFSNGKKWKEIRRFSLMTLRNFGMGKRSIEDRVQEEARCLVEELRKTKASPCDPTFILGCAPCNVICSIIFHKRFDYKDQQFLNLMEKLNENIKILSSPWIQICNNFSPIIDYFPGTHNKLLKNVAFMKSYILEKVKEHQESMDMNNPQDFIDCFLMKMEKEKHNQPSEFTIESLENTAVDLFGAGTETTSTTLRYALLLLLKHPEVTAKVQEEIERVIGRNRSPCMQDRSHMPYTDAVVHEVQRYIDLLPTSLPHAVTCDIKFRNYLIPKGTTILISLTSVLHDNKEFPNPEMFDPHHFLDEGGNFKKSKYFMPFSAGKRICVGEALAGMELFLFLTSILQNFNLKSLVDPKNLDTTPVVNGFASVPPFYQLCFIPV
T2 sequence (P10635 whole entry): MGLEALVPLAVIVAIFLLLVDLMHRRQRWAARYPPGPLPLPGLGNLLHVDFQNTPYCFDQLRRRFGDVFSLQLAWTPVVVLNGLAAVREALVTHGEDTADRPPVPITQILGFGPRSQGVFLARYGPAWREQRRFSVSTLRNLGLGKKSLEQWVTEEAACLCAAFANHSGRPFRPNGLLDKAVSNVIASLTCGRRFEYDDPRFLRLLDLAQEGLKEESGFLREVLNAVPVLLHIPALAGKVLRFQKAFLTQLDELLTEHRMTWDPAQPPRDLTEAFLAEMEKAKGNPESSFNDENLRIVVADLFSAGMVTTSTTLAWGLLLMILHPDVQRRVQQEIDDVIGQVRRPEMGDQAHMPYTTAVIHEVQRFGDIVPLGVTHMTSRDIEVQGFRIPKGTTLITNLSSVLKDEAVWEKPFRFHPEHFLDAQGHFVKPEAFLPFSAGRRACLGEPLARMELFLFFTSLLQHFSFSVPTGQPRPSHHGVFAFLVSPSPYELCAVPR

Compound `CCC(=O)c1ccc(Cl)cc1-c1cc(=O)n([C@@H](Cc2ccccc2)C(=O)Nc2ccc(C(=O)O)cc2)nc1OC` [Example 32] had an IC50 in data set [1] of more than 100 µM. For the same compound, the F in data set [2] (ig) stood at 5.4%. Moreover, in data set [2] (iv), the AUC came to 922 ng·h/mL, the peak concentration (Cmax) came out at 2200 ng/mL, the Tmax worked out at 4.98 min and the clearance was 23.5 mL/min/kg. Besides, in data set [2] (iv), the half-life is 99 min and the Vd was found to be 0.741 L/kg. Further, in data set [2] (po, ig), the AUC was found to be 788 ng·h/mL, the Cmax is 242 ng/mL, the Tmax turned out to be 20 min and the half-life was 226 min. Moreover, in data set [3], the efflux ratio at 2 h was found to be 18.3, the Papp A→B at 2 h is 1.2 ×10⁻⁶ cm/s and the Papp B→A at 2 h was determined as 21.9 ×10⁻⁶ cm/s. Moreover, the IC50 in data set [4] is more than 50 µM. The IC50 in data set [5] was approximately 50 µM.

Turning to `COc1nn([C@@H](Cc2ccccc2)C(=O)Nc2ccc(C(=O)O)cc2)c(=O)cc1-c1cc(Cl)ccc1C(C)=O` [Example 19, (S)-4-(2-(4-(2-acetyl-5-chlorophenyl)-3-methoxy-6-oxopyridazin-1(6H)-yl)-3-phenylpropanamido)benzoic acid], the 50% inhibitory concentration (IC50) in data set [1] was more than 100 µM. The compound also came in with a F in data set [2] (ig) of 24.6%. Moreover, in data set [2] (iv), the AUC was found to be 1020 ng·h/mL, the Cmax was 2500 ng/mL, the Tmax came out at 4.98 min and the clearance came out at 16.4 mL/min/kg. Further, in data set [2] (iv), the half-life was 10.9 min and the Vd amounted to 0.269 L/kg. In addition, in data set [2] (po, ig), the AUC is 2510 ng·h/mL, the highest level (Cmax) was 768 ng/mL, the Tmax came to 75 min and the half-life was 151 min. Also, in data set [3], the efflux ratio at 2 h worked out at 16.3, the Papp A→B at 2 h came to 1.54 ×10⁻⁶ cm/s and the Papp B→A at 2 h turned out to be 25.1 ×10⁻⁶ cm/s. In data set [4], this compound registered an IC50 of more than 50 µM. In data set [5], the IC50 is more than 50 µM.
